The text below walks through data of patent publication US10889563B2, “Deoxyuridine triphosphatase inhibitors” (University of Southern California, priority 2013, dated 2021).

Holding throughout (assay type): cell-based
In test [1] the test system is HCT116 cells. As to the kind of experiment: Colony formation assay, HCT116. The conditions noted are these: HCT116, 0.5 to 5 μmol/L (Example 23).
Test [2] relates to HCT-8 colorectal cell line model. In words: Colony formation assay, HCT-8. The following applies: HCT-8, 1 μmol/L. As to the method:
(§1) Colony forming assay showing the ability of colon (SW620, HCT 116), non-small cell lung (A549, H460, H1299 and H358) and breast (MCF7) cancer cells to survive and proliferate following transient 24 hour exposure to single agent PCI 1013, FUdR and combinations. Specifically, cells were seeded at densities between 50 and 100 cells/well in 24-well plates. Twenty-four hours later, cells were treated with increasing concentrations of PCI 10213, a fixed dose of FUdR and combinations of these. After 24 hours, drug was removed, cells were rinsed and allowed to outgrow for 10-14 days. At the conclusion of the outgrowth, cells were fixed in 60% ice cold methanol and stained with 0.1% crystal violet, scanned and counted. Data is presented as percentage of untreated controls (mean±SD). Fraction affected and combination indexes were calculated according to the method of Chou and Talalay where <1 is indicative of a synergistic drug interaction.
Colony forming assays were subsequently performed to evaluate the effectiveness of additional PCI compounds alone and in combination with FUdR at reducing cancer cell viability in the HCT-8 colorectal cell line model. […] Subsequently, increasing concentrations of PCI compounds were combined with a fixed dose of 1 μmol/L FUdR to evaluate the combined drug effect.

For test [3], the system named is colorectal (HCT116), breast (MCF-7) and non-small cell lung (H1299, A549, H358 and H460) cell line models. As to the kind of experiment: Colony formation assay, all cell lines evaluated. The conditions noted are these: all cell lines evaluated, 0.5 to 2.5 μmol/L. The method, then: as §1
(§2) Subsequently, increasing concentrations of PCI 10213 were combined with a fixed dose of FUdR to evaluate the combined drug effect. In NSCLC cells, concentrations of PCI 10213 ranging from 3.1 μmol/L to 25 μmol/L were combined with 1 μmol/L FUdR. […] The effectiveness of this combination was pronounced in A549 and H460 cells where 12.5 and 25 μmol/L PCI 10213 combined with 1 μmol/L FUdR reduced cell viability by >95% compared to vehicle-treated controls.

For test [4], the system named is MCF-7 breast cancer cell line. As to the kind of experiment: Colony formation assay, MCF-7. The conditions noted are these: MCF-7, 0.5 μmol/L. As to the method:
as §1, §2

Test [5] deals with HCT116 cells. As to the kind of experiment: Colony formation assay, HCT116. The method, then:
as §1, with “interaction. […]” for “interaction.”
(§3) In colorectal cancer cells, concentrations of PCI 10213 ranging from 3.1 μmol/L to 50 μmol/L were combined with 0.5 μmol/L FUdR in HCT116 cells and 1 μmol/L FUdR in SW620 cells.

Test [6] has as its system NSCLC cells (H1299, A549, H358 and H460). As to the kind of experiment: Colony formation assay, NSCLC cells. The conditions noted are these: FUdR printed as One mol/L, vs vehicle-treated controls. As to the method:
as §1, §2

The subject of test [7] is SW620 cells. As to the kind of experiment: Colony formation assay, SW620. The conditions noted are these: SW620; PCI 10213 3.1 to 50 μmol/L or FUdR 1 μmol/L alone. As to the method:
as §1, §3

`O=c1[nH]c(=O)n([C@H]2C[C@H](O)[C@@H](CO)O2)cc1F` [FUdR, fluorodeoxyuridine, reference compound]: the “colonies formed, FUdR alone” value in test [1] is reported as “dose-dependent decreases in colonies formed”; in test [2], “no substantial effect on colonies formed”; in test [3], “dose-dependent decreases in colonies formed”. The “number of colonies formed, FUdR alone” value is on record as “no significant impact on the number of colonies formed” in test [4]; “no significant effect on number of colonies formed” in test [5] (HCT116, 0.5 μmol/L, vs vehicle-treated controls (Example 23)); “no significant effect on number of colonies formed” in test [6]. Besides, the “number of colonies formed, single agent” value is reported as “neither PCI 10213 or the fixed dose of FUdR single agent had any significant effect on the number of colonies formed” in test [5] (HCT116, PCI 10213 3.1 to 50 μmol/L or FUdR 0.5 μmol/L alone) and “neither PCI 10213 or the fixed dose of FUdR single agent had any significant effect on the number of colonies formed” in test [7].
